Patent US20220193081A1 (Ellamed IP & Services PTE. LTD., priority 2019, published 2022)

Experiment: Visual inspection on storage of sildenafil citrate with equal concentration of sucralose in pH adjusted 50% ethanol (Example 2)
Type: physicochemical
Description: At room temperature, a phosphate buffer was prepared by weighing 3.9 g of NaH2PO4.2H2O into a 500 mL volumetric flask and adding approximately 300 mL of purified water until the phosphate fully dissolved. The pH was then adjusted to 7 with the introduction of NaOH and dilute to the requisite volume by the further addition of purified water.
A 50% ethanol mixture was prepared by introducing either purified water, taken from a MilliQ™ unit or phosphate buffer, to equivalent volumes of Ph.Eur. grade absolute alcohol. The pH of the resultant mixture was then adjusted by using either NaOH 1N solutions and/or Sodium Citrate 1N solutions to reach predetermined pH values.
Samples of sucralose were then dissolved in the pH adjusted 50% ethanol, whilst stirred with a magnetic stirrer and a needle, to a predetermined concentration. […] After preparation, the solutions were each filtered through PDVF 0.22 micro filter of 13 mm in size and placed in polypropylene containers of adequate volume.
Before being placed on storage, and at time points 7 and 42 days, the concentration of sildenafil in the mixture was assayed using HPLC. The samples were then stored at either −20° C., 2-8° C. or 25° C. for periods of up to 42 days. Periodically, the samples were visually inspected for evidence of precipitation or crystallization. […]

Measured: visual inspection for precipitation or crystallization

CCCc1nn(C)c2c(=O)nc(-c3cc(S(=O)(=O)N4CCN(C)CC4)ccc3OCC)[nH]c12.O=C(O)CC(O)(CC(=O)O)C(=O)O [sildenafil citrate, 1-[[3-(4,7-Dihydro-1-methyl-7-oxo-3-propyl-1H-pyrazolo[4,3-d]pyrimidin-5-yl)-4-ethoxyphenyl]sulfonyl]-4-methylpiperazine citrate salt]
Prec.: 15 mg/ml, pH 5.0, Sodium Citrate, 2-8° C. | 15 mg/ml, pH 5.0, Sodium Citrate, 25° C. | 15 mg/ml, pH 5.0, Sodium Citrate, −20° C. | 15 mg/ml, pH 5.2, NaOH, −20° C. | 15 mg/ml, pH 6.01, NaOH, 50% ethanol/phosphate buffer, 2-8° C. | 15 mg/ml, pH 6.01, NaOH, 50% ethanol/phosphate buffer, −20° C. | 15 mg/ml, pH 6.2, NaOH, 2-8° C. | 15 mg/ml, pH 6.2, NaOH, 25° C. | 15 mg/ml, pH 6.2, NaOH, −20° C. | 15 mg/ml, pH 6.2, Sodium Citrate, 2-8° C. | 15 mg/ml, pH 6.2, Sodium Citrate, −20° C. | 18 mg/ml, pH 5.2, NaOH, −20° C. | 18 mg/ml, pH 5.2, Sodium Citrate, −20° C. | 18 mg/ml, pH 6.0, NaOH, 50% ethanol/phosphate buffer, 2-8° C. | 18 mg/ml, pH 6.0, NaOH, 50% ethanol/phosphate buffer, −20° C. | 18 mg/ml, pH 6.0, Sodium Citrate, 2-8° C. | 18 mg/ml, pH 6.0, Sodium Citrate, −20° C. | 18 mg/ml, pH 6.2, NaOH, 2-8° C. | 18 mg/ml, pH 6.2, NaOH, 25° C. | 18 mg/ml, pH 6.2, NaOH, −20° C. | 21 mg/ml, pH 5.29, NaOH, 50% ethanol/phosphate buffer, −20° C. | 21 mg/ml, pH 5.5, NaOH, −20° C. | 21 mg/ml, pH 5.5, Sodium Citrate, −20° C. | 21 mg/ml, pH 5.6, NaOH, 50% ethanol/phosphate buffer, 2-8° C. | 21 mg/ml, pH 5.6, NaOH, 50% ethanol/phosphate buffer, −20° C. | 21 mg/ml, pH 5.8, NaOH, 2-8° C. | 21 mg/ml, pH 6.01, NaOH, 50% ethanol/phosphate buffer, 2-8° C. | 21 mg/ml, pH 6.01, NaOH, 50% ethanol/phosphate buffer, −20° C.
